Measured values: the NIST ThermoML archive (doi:10.1021/je900058p)
± gives the expanded uncertainty stated by the source.

What was measured:
[1] = Liquid; for mass density: 293.13 K, 101.33 kPa
[2] = refractive index (Na D-line) (dimensionless); conditions: 293.13 K; 101.33 kPa; Liquid; Standard Abbe refractometry

| SMILES | mass density [1] [kg/m3] | vapor or sublimation pressure ([1]; 359.51 K) [kPa] | vapor or sublimation pressure ([1]; 379.52 K) [kPa] | vapor or sublimation pressure ([1]; 392.57 K) [kPa] | vapor or sublimation pressure ([1]; 400.69 K) [kPa] | refractive index [2] | vapor or sublimation pressure ([1]; 383.1 K) [kPa] | vapor or sublimation pressure ([1]; 404.24 K) [kPa] | vapor or sublimation pressure ([1]; 417.99 K) [kPa] | vapor or sublimation pressure ([1]; 426.54 K) [kPa] | vapor or sublimation pressure ([1]; 410.86 K) [kPa] |
| --- | --- | --- | --- | --- | --- | --- | --- | --- | --- | --- | --- |
| CCCCC(C)=O [2-hexanone] | 811.2 ± 0.4 | 26.66 ± 0.27 | 53.33 ± 0.32 | 79.99 ± 0.45 | 101.32 ± 0.53 | 1.4008 ± 0.0007 | – | – | – | – | – |
| COc1ccccc1 [anisole] | 994.1 ± 0.2 | – | – | – | – | 1.5171 ± 0.0007 | 26.66 ± 0.25 | 53.33 ± 0.3 | 79.99 ± 0.43 | 101.32 ± 0.5 | – |
| CCCCCO [pentan-1-ol] | 814.5 ± 0.4 | – | – | – | – | 1.4098 ± 0.0007 | – | – | – | – | 101.32 ± 1 |
